Measured values as given in US9926506B2, “Tetrarylmethane ethers as fuel markers” (Dow Global Technologies LLC, priority 2014, dated 2018).

SMILES | melting point [°C]
CCCCCCCOc1ccc(C(c2ccccc2)(c2ccccc2)c2ccc(OCCCCCCC)cc2)cc1 [BHeptTPM, Bis(4-(heptyloxy)phenyl)diphenylmethane] | 103 to 105
CCCCCCOc1ccc(C(c2ccccc2)(c2ccccc2)c2ccc(OCCCCCC)cc2)cc1 [BHexTPM] | 120 to 122
CCCCCCCCOc1ccc(C(c2ccccc2)(c2ccccc2)c2ccc(OCCCCCCCC)cc2)cc1 [BOctTPM, Bis(4-(octyloxy)phenyl)diphenylmethane] | 84.5 to 86.5
CCCCCOc1ccc(C(c2ccccc2)(c2ccccc2)c2ccc(OCCCCC)cc2)cc1 [BPentTPM, Bis(4-(pentyloxy)phenyl)diphenylmethane] | 110 to 113
